Source: the supplement of paper PMC11208160

Test: recombinant UMI read abundance after kanamycin selection (control-corrected) (log10(CPM+1)); higher = more efficient recombination; extreme values may be limits of the assay; sequences stand for … in AGTGCAGAGAAAATCGGCCAGTTTTCTCTGCCTGCAGTCCGCATGCCGTGGGACCCCTTGGGTTCTAACCTGTTGCCTAGATTTATGCAGCGGACTGCCTTTCTCCCAAAGTGATAAACCGG…AGGTTGGTTTCACT; site = the 11-nt donor
In short: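 Counts of recombinant UMIs were reported as log10(CPM+1). Before that, they were converted to CPM, averaged over replicates and scaled using control-derived factors. They came from PCR across the donor–target junction after Escherichia coli carrying the pair library and target plasmid was plated on IPTG (0.07 mM) plus kanamycin, or unselected, in two replicates each.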
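Note: IS621 bridge recombinase in Escherichia coli cells against a fixed T5 target plasmid.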

Sequence | recombinant UMI read abundance (log10)
TGAACGACATGGACCGGTTTTCCCGGTAATCCGTATTTGGA (site TGAACGACTTC) | 0.221
TGAAGAGCATGGACCGGTTTTCCCGGTAATCCGTATTTGCC (site TGAAGAGCTGG) | 1.62
TGAAGCACATGGACCGGTTTTCCCGGTAATCCGTATTTGCG (site TGAAGCACTCG) | 1.18
TGAATCACATGGACCGGTTTTCCCGGTAATCCGTATTTGAA (site CACGCGCCTGA) | 0.00781
TGACATTCATGGACCGGTTTTCCCGGTAATCCGTATTTGCC (site TGACATTCTGG) | 2.22
TGACCCGCATGGACCGGTTTTCCCGGTAATCCGTATTTGAC (site CAGATACCTCC) | 0.00655
TGACGAACATGGACCGGTTTTCCCGGTAATCCGTATTTGGT (site TGACGAACTAC) | 1.16
TGACGCTCATGGACCGGTTTTCCCGGTAATCCGTATTTGCG (site TGACGCTCTCG) | 1.33
TGACTGCCATGGACCGGTTTTCCCGGTAATCCGTATTTGAA (site TGACTGCCTTT) | 0.0135
TGACTGGCATGGACCGGTTTTCCCGGTAATCCGTATTTGTA (site TGACTGGCTTA) | 1.34
TGACTGTCATGGACCGGTTTTCCCGGTAATCCGTATTTGAT (site TGACTGTCTAT) | 0.245
TGACTTTCATGGACCGGTTTTCCCGGTAATCCGTATTTGAG (site TGACTTTCTCT) | 0
TGAGCGTCATGGACCGGTTTTCCCGGTAATCCGTATTTGAC (site TGAGCGTCTGT) | 1.7
TGAGCTACATGGACCGGTTTTCCCGGTAATCCGTATTTGTC (site GCGAACTCTCC) | 0
TGAGGACCATGGACCGGTTTTCCCGGTAATCCGTATTTGGG (site AGAGGACCTCC) | 0.0068
TGAGGACCATGGACCGGTTTTCCCGGTAATCCGTATTTGGG (site CGAGGACCTCC) | 0.00688
TGAGGACCATGGACCGGTTTTCCCGGTAATCCGTATTTGGG (site GGAGGACCTCC) | 0.0165
TGAGGACCATGGACCGGTTTTCCCGGTAATCCGTATTTGGG (site TGAGGACCTCC) | 0.0291
TGAGGACCATGGACCGGTTTTCCCGGTAATCCGTATTTGGT (site TGAGGACCTAC) | 0.00901
TGAGGAGCATGGACCGGTTTTCCCGGTAATCCGTATTTGGT (site TGAGGAGCTAC) | 1.12
TGAGGCTCATGGACCGGTTTTCCCGGTAATCCGTATTTGGT (site TGAGGCTCTAC) | 1.76
TGAGTTTCATGGACCGGTTTTCCCGGTAATCCGTATTTGCT (site TGAGTTTCTAG) | 1.54
TGATACTCATGGACCGGTTTTCCCGGTAATCCGTATTTGCA (site TAATACTCTTG) | 2.38
TGATACTCATGGACCGGTTTTCCCGGTAATCCGTATTTGCA (site TCATACTCTTG) | 1.29
TGATACTCATGGACCGGTTTTCCCGGTAATCCGTATTTGCA (site TGATACTCTTG) | 2.51

Sequence | recombinant UMI read abundance (log10)
TGATACTCATGGACCGGTTTTCCCGGTAATCCGTATTTGCA (site TTATACTCTTG) | 1.96
TGATCATCATGGACCGGTTTTCCCGGTAATCCGTATTTGCG (site CGATCATCTAG) | 0
TGATCATCATGGACCGGTTTTCCCGGTAATCCGTATTTGCG (site TGATCATCTCG) | 1.27
TGATCGACATGGACCGGTTTTCCCGGTAATCCGTATTTGTT (site AGATCGACTAA) | 0.0146
TGATCGACATGGACCGGTTTTCCCGGTAATCCGTATTTGTT (site CGATCGACTAA) | 0.0214
TGATCGACATGGACCGGTTTTCCCGGTAATCCGTATTTGTT (site GGATCGACTAA) | 0.0286
TGATCGACATGGACCGGTTTTCCCGGTAATCCGTATTTGTT (site TGATCGACTAA) | 0.0254
TGATTATCATGGACCGGTTTTCCCGGTAATCCGTATTTGAA (site TGATTATCTTT) | 1.32
TGCACAGCATGGACCGGTTTTCCCGGTAATCCGTATTTGGC (site TGCACAGCTGC) | 1.05
TGCATATCATGGACCGGTTTTCCCGGTAATCCGTATTTGAC (site TGCATATCTGT) | 1.25
TGCATCCCATGGACCGGTTTTCCCGGTAATCCGTATTTGAC (site TGCATCCCTGT) | 0.448
TGCATGCCATGGACCGGTTTTCCCGGTAATCCGTATTTGGT (site TGCATGCCTAC) | 0.0134
TGCCAATCATGGACCGGTTTTCCCGGTAATCCGTATTTGTG (site TGCCAATCTCA) | 0.0694
TGCCACACATGGACCGGTTTTCCCGGTAATCCGTATTTGAG (site TGCCACACTCT) | 0.305
TGCCCCGCATGGACCGGTTTTCCCGGTAATCCGTATTTGTT (site TGCCCCGCTAA) | 0.0107
TGCCGATCATGGACCGGTTTTCCCGGTAATCCGTATTTGGT (site TGCCGATCTAC) | 0
TGCCGCTCATGGACCGGTTTTCCCGGTAATCCGTATTTGGA (site TGCCGCTCTTC) | 0.324
TGCCGGTCATGGACCGGTTTTCCCGGTAATCCGTATTTGCA (site TGCCGGTCTTG) | 1.45
TGCCGTTCATGGACCGGTTTTCCCGGTAATCCGTATTTGAT (site TGCCGTTCTAT) | 0
TGCCTCGCATGGACCGGTTTTCCCGGTAATCCGTATTTGAT (site TGCCTCGCTAT) | 0.0124
TGCGTCACATGGACCGGTTTTCCCGGTAATCCGTATTTGCC (site TGCGTCACTGG) | 1.97
TGCTAATCATGGACCGGTTTTCCCGGTAATCCGTATTTGCT (site TGCTAATCTAG) | 1.08
TGCTAGGCATGGACCGGTTTTCCCGGTAATCCGTATTTGGG (site TGCTAGGCTAC) | 0.0327
TGCTAGGCATGGACCGGTTTTCCCGGTAATCCGTATTTGGG (site TGCTAGGCTCC) | 0.00935
TGCTAGGCATGGACCGGTTTTCCCGGTAATCCGTATTTGGG (site TGCTAGGCTGC) | 0

Sequence | recombinant UMI read abundance (log10)
TGCTAGGCATGGACCGGTTTTCCCGGTAATCCGTATTTGGG (site TGCTAGGCTTC) | 0.00914
TGCTAGTCATGGACCGGTTTTCCCGGTAATCCGTATTTGAC (site TGCTAGTCTGT) | 0
TGCTCAACATGGACCGGTTTTCCCGGTAATCCGTATTTGGC (site TGCTCAACTGC) | 0
TGCTCATCATGGACCGGTTTTCCCGGTAATCCGTATTTGCT (site CGATCATCTAG) | 0
TGCTCATCATGGACCGGTTTTCCCGGTAATCCGTATTTGCT (site TGCTCATCTAG) | 1.08
TGCTCCACATGGACCGGTTTTCCCGGTAATCCGTATTTGGA (site TGCTCCACTTC) | 0
TGCTCCCCATGGACCGGTTTTCCCGGTAATCCGTATTTGGT (site TGCTCCCCTAC) | 0.0121
TGCTGCGCATGGACCGGTTTTCCCGGTAATCCGTATTTGTG (site TGCTGCGCTCA) | 0.0115
TGCTGGGCATGGACCGGTTTTCCCGGTAATCCGTATTTGGT (site TGCTAGGCTAC) | 0.109
TGCTGGGCATGGACCGGTTTTCCCGGTAATCCGTATTTGGT (site TGCTCGGCTAC) | 0.0121
TGCTGGGCATGGACCGGTTTTCCCGGTAATCCGTATTTGGT (site TGCTGGGCTAC) | 0.306
TGCTGGGCATGGACCGGTTTTCCCGGTAATCCGTATTTGGT (site TGCTTGGCTAC) | 0.0187
TGCTGTCCATGGACCGGTTTTCCCGGTAATCCGTATTTGTT (site TGCTGTCCTAA) | 0.00448
TGGAAGACATGGACCGGTTTTCCCGGTAATCCGTATTTGCG (site AGGAAGACTTG) | 0
TGGAAGACATGGACCGGTTTTCCCGGTAATCCGTATTTGCG (site TGGAAGACTCG) | 2.05
TGGACAACATGGACCGGTTTTCCCGGTAATCCGTATTTGTG (site TGGACAACTCA) | 0.209
TGGACCTCATGGACCGGTTTTCCCGGTAATCCGTATTTGAG (site TGGACCTCTCT) | 0.96
TGGATCACATGGACCGGTTTTCCCGGTAATCCGTATTTGCT (site TGGATCACTAG) | 1.72
TGGCAACCATGGACCGGTTTTCCCGGTAATCCGTATTTGCT (site TGGCAACCTAG) | 0
TGGCAAGCATGGACCGGTTTTCCCGGTAATCCGTATTTGGC (site TGGCAAGCTGC) | 0.585
TGGCATACATGGACCGGTTTTCCCGGTAATCCGTATTTGTA (site TGGCATACTTA) | 0.751
TGGCCGGCATGGACCGGTTTTCCCGGTAATCCGTATTTGGA (site TGGCCGGCTAC) | 0.0385
TGGCCGGCATGGACCGGTTTTCCCGGTAATCCGTATTTGGA (site TGGCCGGCTCC) | 0.0416
TGGCCGGCATGGACCGGTTTTCCCGGTAATCCGTATTTGGA (site TGGCCGGCTGC) | 0
TGGCCGGCATGGACCGGTTTTCCCGGTAATCCGTATTTGGA (site TGGCCGGCTTC) | 0.0151
